Experimental data as given in patent publication US10827755B2, “Insecticidal compositions and methods” (priority 2015, dated 2020).

Columns and labels:
Assay type in all cases: in vivo
[1] = test system: Yellow Fever Mosquito (YFM); assay: Insect feeding assay (Example 3), yellow fever mosquito; design: key: A “+” score was given to samples which showed any level of stunting and/or mortality higher than that of the untreated controls; A “−” score was given to samples which showed no activity; conditions: 0.1 mginiL diet overlay, 6 days, 27° C., summary of two replicates
Method: (§1) For evaluating control of insect species, the test unit consisted of a 96-well bioassay plate filled with a species-specific artificial diet. Compounds were dissolved in DMSO and added as diet overlay to the indicated concentration, and dried/maintained overnight before infestation. Once dry, the bioassay plates were infested with a single neonate larva (nymph for lygus) per well. The bioassay plates were then held for 6 days in an incubator at 27° C. and 50% relative humidity. Sample response was then visually assessed based on mortality and stunting of the insect. […] Western corn rootworm data represents a summary of three replicates. Data for all other insect species represents a summary of two replicates.

[2] = test system: Western Tarnished Plantbug; assay: Insect feeding assay (Example 4), Western tarnished plantbug; design: key: “+” represents mortality or stunting significantly different compared to the untreated control; “−” represents no significant difference in mortality or stunting compared to the untreated control; conditions: 0.05 mg/mL diet overlay, nymph, 6 days, 27° C.
Method: (§2) For evaluating control of insect species in this example, the test unit consisted of a 96-well bioassay plate filled with species-specific artificial diet. Compounds were dissolved in DMSO and added as diet overlay to the indicated concentration and dried/maintained overnight before infestation. Once dry, the bioassay plates were infested with a single neonate larva (nymph for lygus) per well. The bioassay plates were held for 6 days in an incubator at 27° C. and 50% relative humidity. Each well was assessed for infestation and contamination. Wells that were contaminated or not infested were not included in the stunting and mortality assessment. A stunting score was reported based on the relative size of the survivors within the 8-well column with averaging across a 3 column replicate. Untreated control insects were used as a reference.

[3] = test system: Fall Armyworm (FAW); assay: Insect feeding assay (Example 4), fall armyworm; design: key: “+” represents mortality or stunting significantly different compared to the untreated control; “−” represents no significant difference in mortality or stunting compared to the untreated control; conditions: 0.05 mg/mL diet overlay, 6 days, 27° C.
Method: as §2

[4] = test system: Soybean Looper (SL); assay: Insect feeding assay (Example 4), soybean looper; design: key: “+” represents mortality or stunting significantly different compared to the untreated control; “−” represents no significant difference in mortality or stunting compared to the untreated control; conditions: 0.05 mg/mL diet overlay, 6 days, 27° C.
Method: as §2

[5] = test system: Diamondback Moth (DBM); assay: Insect feeding assay (Example 4), diamondback moth; design: key: “+” represents mortality or stunting significantly different compared to the untreated control; “−” represents no significant difference in mortality or stunting compared to the untreated control; conditions: 0.05 mg/mL diet overlay, 6 days, 27° C.
Method: as §2

[6] = test system: Diamondback Moth (DBM); assay: Insect feeding assay (Example 3), diamondback moth; design: key: A “+” score was given to samples which showed any level of stunting and/or mortality higher than that of the untreated controls; A “−” score was given to samples which showed no activity; conditions: 0.1 mg/mL diet overlay, 6 days, 27° C., summary of two replicates
Method: as §1

[7] = test system: Yellow Fever Mosquito (YEW); assay: Insect feeding assay (Example 4), yellow fever mosquito; design: key: “+” represents mortality or stunting significantly different compared to the untreated control; “−” represents no significant difference in mortality or stunting compared to the untreated control; conditions: 0.05 mg/mL diet overlay, 6 days, 27° C.
Method: as §2

[8] = test system: Western Corn Root Worm (WCR); assay: Insect feeding assay (Example 3), Western corn rootworm; design: key: A “+” score was given to samples which showed any level of stunting and/or mortality higher than that of the untreated controls; A “−” score was given to samples which showed no activity; conditions: 0.1 mg/mL diet overlay, 6 days, 27° C., summary of three replicates
Method: as §1

[9] = test system: Western Corn Rootworm (WCR); assay: Insect feeding assay (Example 4), Western corn rootworm; design: key: “+” represents mortality or stunting significantly different compared to the untreated control; “−” represents no significant difference in mortality or stunting compared to the untreated control; conditions: 0.05 mg/mL diet overlay, 6 days, 27° C.
Method: as §2

In the case of `Cn1cc(C(=O)NC2CCSCC2)c(-c2ccccc2Cl)n1` [II-v], the “YEM (0.1 mginiL) mortality and stunting score” value (“YEM” for short) [1] is reported as “+”.

`CC1CCCCC1NC(=O)c1cn(-c2ccccc2)nc1-c1cccs1` (stereo not drawn) [II-ii] was tested, and the “WTP (0.05 mg/mL mortality or stunting)” value [2] was “−”, the “FAW (0.05 mg/mL) mortality or stunting” value [3] was “−” and the “SL (0.05 mg/mL) mortality or stunting” value [4] was “−”. For the same compound, the “DBM (0.05 mg/mL) mortality or stunting” value [5] was “−”, the “DBM (0.1 mg/mL) mortality and stunting score” value [6] was “+” and the “YFM (0.05 mg/mL) mortality or stunting” value [7] was “−”.

For `C#CCOc1ccccc1-c1nc(-c2ccccc2)c(-c2ccccc2)[nH]1` [I-vi], the “WTP (0.05 mg/mL mortality or stunting)” value [2] was “+”, the “FAW (0.05 mg/mL) mortality or stunting” value [3] was “−” and the “SL (0.05 mg/mL) mortality or stunting” value [4] was “−”. The “DBM (0.05 mg/mL) mortality or stunting” value [5] was “+” and the “YFM (0.05 mg/mL) mortality or stunting” value [7] was “+”.

In the case of `Cc1ccc(C)c(-c2nc(-c3c(Cl)cccc3Cl)[nH]c2-c2ccccc2)c1` [I-ii], the “WTP (0.05 mg/mL mortality or stunting)” value [2] is reported as “+”, the “YEM” value [1] is reported as “+” and the “FAW (0.05 mg/mL) mortality or stunting” value [3] is reported as “+”. The “SL (0.05 mg/mL) mortality or stunting” value [4] was “+”, the “DBM (0.05 mg/mL) mortality or stunting” value [5] was “+” and the “WCR (0.1 mg/mL) mortality and stunting score” value [8] was “+”. For the same compound, the “YFM (0.05 mg/mL) mortality or stunting” value [7] was “+”.

With `O=C(c1ccc(F)cc1)c1ccc(-c2nc(-c3cccc(F)c3)[nH]c2-c2ccccc2)cc1` [I-x] the “WCR (0.05 mg/mL) mortality or stunting” value [9] was “+”, the “WTP (0.05 mg/mL mortality or stunting)” value [2] was “+” and the “FAW (0.05 mg/mL) mortality or stunting” value [3] was “+”. For the same compound, the “SL (0.05 mg/mL) mortality or stunting” value [4] was “+”, the “DBM (0.05 mg/mL) mortality or stunting” value [5] was “+” and the “YFM (0.05 mg/mL) mortality or stunting” value [7] was “−”.

`COc1ccc(-c2nc(-c3ccccc3)c(-c3ccccc3)[nH]2)c(OC)c1` [I-iv] was tested, and the “WTP (0.05 mg/mL mortality or stunting)” value [2] was “−”, the “YEM” value [1] was “+” and the “FAW (0.05 mg/mL) mortality or stunting” value [3] was “−”. For the same compound, the “SL (0.05 mg/mL) mortality or stunting” value [4] was “−”, the “DBM (0.05 mg/mL) mortality or stunting” value [5] was “+” and the “WCR (0.1 mg/mL) mortality and stunting score” value [8] was “+”. The “YFM (0.05 mg/mL) mortality or stunting” value [7] was “+”.

For `Cn1cc(C(=O)NCCC2CCCO2)c(-c2ccccc2Cl)n1` (stereo not drawn) [II-iv], the “WTP (0.05 mg/mL mortality or stunting)” value [2] was “−”, the “YEM” value [1] was “+” and the “FAW (0.05 mg/mL) mortality or stunting” value [3] was “−”. For the same compound, the “SL (0.05 mg/mL) mortality or stunting” value [4] was “−”, the “DBM (0.05 mg/mL) mortality or stunting” value [5] was “−” and the “YFM (0.05 mg/mL) mortality or stunting” value [7] was “−”.

With `C=CCNC(=O)c1cn(-c2ccc(C)cc2)nc1-c1ccccc1` [II-i] the “YEM” value [1] was “+”, the “DBM (0.05 mg/mL) mortality or stunting” value [5] was “+” and the “DBM (0.1 mg/mL) mortality and stunting score” value [6] was “+”.

With `Clc1cccc(-c2[nH]c(-c3ccc(Cl)cc3Cl)nc2-c2ccccc2)c1` [I-vii] the “WTP (0.05 mg/mL mortality or stunting)” value [2] was “−”, the “FAW (0.05 mg/mL) mortality or stunting” value [3] was “+” and the “SL (0.05 mg/mL) mortality or stunting” value [4] was “+”. The “DBM (0.05 mg/mL) mortality or stunting” value [5] was “+” and the “YFM (0.05 mg/mL) mortality or stunting” value [7] was “+”.

For `Cc1cc(C)c(-c2nc(-c3ccccc3)c(-c3ccccc3)[nH]2)c(C)c1` [I-i], the “WTP (0.05 mg/mL mortality or stunting)” value [2] was “−”, the “YEM” value [1] was “+” and the “FAW (0.05 mg/mL) mortality or stunting” value [3] was “−”. For the same compound, the “SL (0.05 mg/mL) mortality or stunting” value [4] was “−”, the “DBM (0.05 mg/mL) mortality or stunting” value [5] was “+” and the “WCR (0.1 mg/mL) mortality and stunting score” value [8] was “+”. The “YFM (0.05 mg/mL) mortality or stunting” value [7] was “−”.

For `Cc1ccc(C)c(-c2nc(-c3c(F)cccc3Cl)[nH]c2-c2ccccc2)c1` [I-iii], the “YEM” value [1] was “+”.

For `COc1ccc(-c2nc(-c3ccccc3)c(-c3ccccc3)[nH]2)c(OC)c1OC` [I-viii], the “WCR (0.05 mg/mL) mortality or stunting” value [9] was “+”, the “WTP (0.05 mg/mL mortality or stunting)” value [2] was “−” and the “FAW (0.05 mg/mL) mortality or stunting” value [3] was “−”. The “SL (0.05 mg/mL) mortality or stunting” value [4] was “−”, the “DBM (0.05 mg/mL) mortality or stunting” value [5] was “+” and the “YFM (0.05 mg/mL) mortality or stunting” value [7] was “+”.

With `CCOc1ccccc1-c1nc(-c2ccccc2)c(-c2ccccc2)[nH]1` [I-v] the “WTP (0.05 mg/mL mortality or stunting)” value [2] was “−”, the “FAW (0.05 mg/mL) mortality or stunting” value [3] was “−” and the “SL (0.05 mg/mL) mortality or stunting” value [4] was “−”. The “DBM (0.05 mg/mL) mortality or stunting” value [5] was “−”, the “WCR (0.1 mg/mL) mortality and stunting score” value [8] was “+” and the “YFM (0.05 mg/mL) mortality or stunting” value [7] was “−”.

For `CCOCCNC(=O)c1cn(C)nc1-c1ccccc1Cl` [II-iii], the “WTP (0.05 mg/mL mortality or stunting)” value [2] was “−”, the “YEM” value [1] was “+” and the “FAW (0.05 mg/mL) mortality or stunting” value [3] was “−”. The “SL (0.05 mg/mL) mortality or stunting” value [4] was “−”, the “DBM (0.05 mg/mL) mortality or stunting” value [5] was “−” and the “YFM (0.05 mg/mL) mortality or stunting” value [7] was “−”.

For `CSc1ccc(-c2nc(-c3ccc(C)cc3)c(-c3ccc(C)cc3)[nH]2)cc1` [I-ix], the “WCR (0.05 mg/mL) mortality or stunting” value [9] was “+”, the “WTP (0.05 mg/mL mortality or stunting)” value [2] was “−” and the “FAW (0.05 mg/mL) mortality or stunting” value [3] was “+”. For the same compound, the “SL (0.05 mg/mL) mortality or stunting” value [4] was “+”, the “DBM (0.05 mg/mL) mortality or stunting” value [5] was “+” and the “YFM (0.05 mg/mL) mortality or stunting” value [7] was “−”.
